Key:
[1] = target: phencyclidine (PCP) receptor of the NMDA receptor complex; assay: [3H]-TCP binding (displacement of specific [3H]TCP binding); parameters: species or system Sprague-Dawley rats; settings: [3H]-TCP 2.5 nM; rat cortex/hippocampus synaptic membranes; 30 min, 37° C., pH 7.7; read-out: IC50 value, 50% inhibition of total specific [3H]TCP binding
Description: The actions of compounds of formula I as an antagonist at the phencyclidine (PCP) receptor of the NMDA receptor complex can be shown using known in vitro tests, for example that described in Vignon et al., Brain Research, 280, 194-197 (1983). Vignon et al. disclose that tritiated N-(1-[2-thienyl]cyclohexyl)-3,4-[^3 H]-piperidine (also abbreviated as [^3 H]-TCP) binds to PCP binding sites (e.g. in rat brains) more strongly than PCP itself. […] [^3 H]-TCP thus provides a useful tool for measuring the binding affinities of compounds which bind to PCP receptors such as the PCP site in the NMDA receptor complex.
Specifically when it is desired to measure the binding affinity of a compound of formula I, a source of (brain) NMDA receptors is generated by preparing neuronal synaptic membranes from adult Sprague-Dawley rats. In brief, freshly dissected cortices and hippocampi were homogenized in 0.32 M sucrose (100 mg/ml). […]
The procedure for [^3 H]-TCP binding is adapted from Vignon et al. (1983). […] Non-specific binding is determined with 100 μM MK-801, a […] well known and characterized in the art as set forth for example, in European Patent Application 0 230 370, published July 29, 1987. […] Radioactivity is measured by liquid scintillation counting. The specific activity of the [^3 H]TCP is used to convert the radioactivity measured to concentration [^3 H]TCP bound. […]

[2] = system: neuronal damage in the hippocampus; assay: gerbil ischemic model (bilateral carotid occlusion, neuronal damage in the hippocampus); assay type: in vivo, Mongolian gerbils; settings: ip dose of 60 mg/kg
Method: Typically an animal is rendered ischemic, for example, for transient occlusion of the carotid artery. A test compound is then administered to said ischemic animal at or about the time of the ischemica event. The ability of the test compound to reduce or prevent neurological degeneration may then be assessed, for example, by sacrificing the animal, followed by conventional histological examination of suitable brain tissue. For example, the following is a description of a suitable test in vivo using the gerbil model.
When testing in vivo using the gerbil ischemic model, adult female Mongolian gerbils (50-70 g) are anesthetized with 2 to 3% halothane. The bilateral common carotid arteries at the neck are exposed and occluded with microaneurysm clips. After 10 min (unless specified), the clips are removed and the blood flow through the carotid arteries is restored and the skin is sutured. […] Gross behavioral observations along with motor activity are recorded for 2 hr on the first (24 hr) day following the occlusion. […]
Sections (7 micron) are evaluated from each brain. […] The average brain damage rating score for each group is recorded, and the damage scores of the drug treated group are compared to the vehicle-treated group using Wilcoxcon ranks sum test.

Row | SMILES | IC50 [1] | neuroprotective effect [2] | overt toxic effects [2]
1 | COc1cccc2c1CCC21NCc2ccccc21 (stereo not shown) [Example 18, 4-Methoxyspiro[indan-1,1'-(1,3-dihydroisoindole)]] | 5 µM |  | 
2 | c1ccc2c(c1)CNC21CCCc2sccc21 (stereo not shown) [Example 20, Spiro[4,5,6,7-tetrahydrobenzothiophene-4,1'-(1,3-dihydroisoindole)]] | 0.6 µM |  | 
3 | CN1Cc2ccccc2C12CCCc1sccc12 (stereo not shown) [Example 21, 2'-Methylspiro[4,5,6,7-tetrahydrobenzothiophene-4,1'-(1,3-dihydroisoindole)]] |  | significant neuroprotective effect | without any overt toxic effects
